Results from patent publication US20260373132A1, “PERK INHIBITORHC-5404 IN COMBINATION WITH ANTI-PD-1 ANTIBODY AND/OR AN ANTIANGIOGENETIC AGENT FOR USE IN THE TREATMENT OF CANCER” (HIBERCELL, INC., priority 2022, published 2026).

Key:
pPERK in 786-O tumors = assay: pPERK in 786-O tumor xenografts; format: in vivo, mouse
[1] = test system: myeloid, lymphoid and tumor cells in MB49 model; assay: flow cytometry of tumor, lymph node and blood cells in MB49 model; format: in vivo, mouse; settings: 10, 30 mg/kg (FIG. 8)
Protocol: C57BL/6 mice were subcutaneously inoculated with MB49 cells, and treatment started on day 8 post cell inoculation. A group of animals (n=10/group) received either vehicle, HC-5404 (PO, BID) (3 mg/kg, 10 mg/kg, or 30 mg/kg), 5 mg/kg anti-PD-1 antibody (aPD-1) (RMP1-14) (IP, BIW), or the combination of both. At various timepoints, animals were sacrificed, and flow cytometry was performed on blood or single cell suspensions from tumors or lymph nodes (n=6).
Tumor tissue samples were obtained 7 days post treatment (14 days post inoculation). Single cells were prepared by enzymatic digestion of tumor tissues and subsequently analyzed by flow cytometry on a Cytek Aurora. Expression of IFNAR1 (A) and PD-L1 (B) on the myeloid populations and tumors were shown.
Surface calreticulin was analyzed by flow cytometry on MB49 tumor cells d7 post treatment.
Single cell suspensions were washed in PBS twice and then stained with the LIVE/DEAD fixable blue dead cell stain (Invitrogen cat #L23105) at 1:3000 dilution for 30 minutes at 4 °C. […]
LN cells from day 14 post treatment samples were analyzed by flow cytometry. […]
Whole blood was collected on the indicated date post treatment in a MB49 model. IFNAR1 expression was determined by flow cytometry and gated on CD14+ monocytes […]

mouse pancreas = assay: pancreas histology (pancreatic toxicity); format: in vivo
Protocol: As PERK inhibition has been associated with pancreatic toxicity, pancreas sections were evaluated from mice treated with 30 mg/kg or 100 mg/kg HC-5404. […] Together, these findings further supported the decision to dose at 30 mg/kg HC-5404 in subsequent in vivo studies.

786-O RCC xenograft = 786-O RCC xenograft tumor growth; format: in vivo, mouse
Protocol: Xenograft RCC models were generated as follows: Female NOD.SCID mice (6-8 weeks of age) were injected with A498 RCC cells (5×10^6 cells/mouse), female Balb/c Nude mice (6-8 weeks old) were implanted with 786-O RCC cells (5×10^6 cells/mouse) or Caki-1 RCC cells (6×10^6 cells/mouse), female Athymic Nude-Foxn1nu mice (7-8 weeks of age) were implanted with MFE280 endometrial cells (10×10^6 cells/mouse). Cells were implanted into the flank of animals.
Once tumor tumors reached volume of typically 150-250 mm^3, animals were randomized by tumor volume into the treatment groups of 8 or 10 animals per group. In the single animal trial with RCC PDX models, only one animal per group was enrolled.
Body weight and tumor volume were measured twice weekly. Tumor volume was calculated using the formula [tumor volume (mm^3)=π/6×length×width^2] and plotted as means+SEM. The percentage of tumor growth inhibition was calculated at the end of the study using the formula: […], if ΔT>0, ΔT, mean tumor volume of the drug-treated group on the observation day of the study—mean tumor volume of the drug-treated group on initial day of dosing; ΔC, mean tumor volume of the control group on the observation day of the study—mean tumor volume of the control group on initial day of dosing. Regression was calculated using the formula=100×ΔT/Tinitial, if ΔT<0. Animals with >50% regressions were partial responders. Animals with tumor volume of 0 (no measurable tumor) were considered as complete responders, and animals with <50% tumor regression and 30% growth over the baseline were considered as stable disease. Animals with tumors>30% increase over the baseline were considered progressive disease. The % change in body weight was calculated by the formula (body weight on observation day−body weight on initial day)/body weight on initial day×100%.

HMGB1 in 786-O xenograft = assay: HMGB1 IHC in 786-O xenografts; format: in vivo, mouse; settings: 30 mg/kg, compared to vehicle (FIG. 4D)
Protocol: 786-O tumor cells were maintained in vitro with MEM medium supplemented with 10% heat inactivated fetal bovine serum and 0.01 mM NEAA, at 37 °C in an atmosphere of 5% CO2. Each mouse was inoculated subcutaneously at the right front region with 786-O tumor cells (5×106) in 0.1 ml of PBS (1:1 matrigel) for tumor development. The randomization for efficacy study began when the mean tumor size reached approximately 200-300 mm^3, preferably to initiate with 250 mm^3. […]
Paraffin sections of tumor samples were stained on slides for HMGB1 using the Abcam antibody (cat #ab18256) and chromogenic DAB staining on Bond Rx (Leica Biosystems). The slides were digitized by Leica AT2 slide scanner with 40× objective. The scanned images were analyzed using custom-written macro in ImageJ/FIJI (NIH) to measure nuclear and non-nuclear signal (FIGS. 4C and 4D).

Cc1cc(NC(=O)[C@H](O)c2cc(F)cc(F)c2)ccc1-c1cnc(N)c(C(=O)NC(C)C)c1 [HC-5404, (R)-2-amino-5-(4-(2-(3,5-difluorophenyl)-2-hydroxyacetamido)-2-methylphenyl)-N-isopropylnicotinamide]
pPERK expression in 786-O (pPERK in 786-O tumors; 30 mg/kg PO BID, seven days (FIG. 30)): strongly inhibited pPERK expression | time of return of pPERK to baseline in 786-O tumors (pPERK in 786-O tumors; 30 mg/kg, post dose): ≤ 8 h | pPERK levels in 786-O (pPERK in 786-O tumors; DC-101 study, 4 days of treatment (FIG. 37)): inhibited the pPERK signal | inhibition at 30 mg/kg (pPERK in 786-O tumors; Mus musculus, 786-0, 30 mg/kg, 1 h post dose): ~90% | VEGFR-TKI-induced pPERK accumulation in 786-O tumors (pPERK in 786-O tumors; PD arm, 7 days, HC-5404 in combination with VEGFR-TKIs): inhibited by the addition of HC-5404 | effect on IFNAR1 on monocytes in peripheral blood [1]: also detected on monocytes in peripheral blood | reversibility of histological pancreas changes (mouse pancreas; 100 mg/kg PO BID, two-week washout): reversible with a two-week washout period | histological changes in the pancreas (mouse pancreas; 30 or 100 mg/kg PO BID, three weeks): histological changes in the pancreas only in the 100 mg/kg dose | tumor growth inhibition (786-O RCC xenograft; 30 mg/kg PO BID, 28 days (FIG. 22)): 48% | difference between BID and QD dosing (786-O RCC xenograft; 3, 10, 30 mg/kg BID vs 6, 20, 60 mg/kg QD, PO): not statistically significant | TGI (786-O RCC xenograft; 10 and 30 mg/kg PO BID tested, 28 days (FIG. 36)): approximately 52% | TGI % (786-O RCC xenograft; HC-5404 30 mg/kg PO BID, cabozantinib combination study (FIG. 52)): ~ 61% | dose dependence of antitumor efficacy (786-O RCC xenograft; HC-5404 3, 10 and 30 mg/kg PO BID): trend for dose-dependent antitumor efficacy | effect on tumor volume (786-O RCC xenograft; single agent, efficacy arms (FIG. 28)): modest effects on tumor volume | HMGB1 cytoplasmic expression (HMGB1 in 786-O xenograft): induced
